Experimental data taken from patent US6979666B2, “Dithianon-based fungicidal mixtures” (BASF Aktiengesellschaft, priority 2002, dated 2005).

Tested on: Alternaria solani
Experiment: Activity against early blight of tomato caused by Alternaria solani (protective spray on potted tomato plants)
Format: in vivo
Conditions: tomato leaves, rated after 5 days, untreated control 72% infection
Description: The active compounds, separately or together, were prepared as a stock solution with 0.25% by weight of active compound in acetone or DMSO. 1% by weight of the emulsifier Uniperol® EL (wetting agent having emulsifying and dispersing action based on ethoxylated alkylphenols) was added to this solution, and the solution was diluted with water to the desired concentration.
Use example: Activity against early blight of tomato caused by Alternaria solani
Leaves of potted plants of the cultivar “Groβe Fleischtomate St. Pierre” were sprayed to runoff point with an aqueous suspension having the concentration of active compound stated below. The next day, the leaves were infected with an aqueous spore suspension of Alternaria solani in a 2% strength biomalt solution having a density of 0.17×10^6 spores/ml. The plants were then placed in a water-vapor-saturated chamber at 20–22° C. After 5 days, the early blight on the untreated, but infected control plants had developed to such an extent that the infection could be determined visually in %.
Evaluation is carried out by determining the infected leaf areas in percent. These percentages are converted into efficacies.
The efficacy (E) is calculated as follows using Abbot's formula: E=(1−α/β)·100 • α corresponds to the fungal infection of the treated plants in % and • β corresponds to the fungal infection of the untreated (control) plants in %
An efficacy of 0 means that the infection level of the treated plants corresponds to that of the untreated control plants; an efficacy of 100 means that the treated plants were not infected.
The expected efficacies of the active compound mixtures are determined using Colby's formula [S.R. Colby, Weeds 15, 20–22 (1967)] and compared with the observed efficacies.
Colby's Formula: E=x+y−x·y/100 • E expected efficacy, expressed in percent of the untreated control, when using the mixture of the active compounds A and B at the concentrations a and b • x efficacy, expressed in % of the untreated control, when using active compound A at a concentration of a • y efficacy, expressed in % of the untreated control, when using active compound B at a concentration of b

[1] = 8 ppm active compound in the spray liquid
[2] = 16 ppm active compound in the spray liquid
[3] = 31 ppm active compound in the spray liquid
[4] = 63 ppm active compound in the spray liquid

| Structure (SMILES) | Efficacy in % of the untreated control [1] [%] | Efficacy in % of the untreated control [2] [%] | Efficacy in % of the untreated control [3] [%] | Efficacy in % of the untreated control [4] [%] |
| --- | --- | --- | --- | --- |
| N#Cc1sc2c(=O)c3ccccc3c(=O)c=2sc1C#N [I, dithianon] | 44 | 65 | 79 | 86 |
| Cc1cc(C)nc(Nc2ccccc2)n1 [II-1, pyrimethanil] | 0 | 0 | 0 | 0 |
| Cc1cc(C2CC2)nc(Nc2ccccc2)n1 [II-2, cyprodinil] | 44 | 72 |  | 86 |
